The values that follow come from US9631170B2, “Genetically inducible hydrogen peroxide resistance and production” (University of Wyoming, priority 2011, dated 2017).

Test [1] concerns Synechococcus elongatus PCC 7942. As to conditions: non-linear regression of dose response data, FIG. 11; wild type vs insertional katG null mutant.
Protocol: These experiments generate dose response curves for growth versus H2O2-based algaecide concentration. […] EC50 for growth rate is determined from non-linear regression curves fitted to growth rate data from 5-7 experimental replicates at 5 to 7 stress doses. To fit curves, non-linear regressions are applied to the dose response data and the fit of the regression curve to the log-logistic equation will be F-tested.
One of these strains was a wild type (WT) and one was an insertional null mutant for the major cyanobacterial catalase encoded by the katG gene.
In a further test the test system is plant chloroplasts. The following applies: H2O2 concentrations as low as 10 μM; cited from earlier work.

Consider `OO` [H2O2, hydrogen peroxide], for which the “resistance to exogenous H2O2 of wild type relative to katG null mutant lacking catalase activity” value in test [1] is roughly 2 fold. For the same compound, the “decrease of photosynthetic carbon fixation” value with plant chloroplasts is 50%.
